Consider 16 molecules from US11878975B2, “Substituted indole compounds useful as TLR inhibitors” (BRISTOL-MYERS SQUIBB COMPANY, priority 2017, dated 2024).

Assay type in all cases: cell-based
The target of one experiment is T1, human TLR7 (Homo sapiens, UniProt Q9NYK1).
T1 construct: host or cells: HEK-Blue cells
T1 sequence (Q9NYK1 27-1049): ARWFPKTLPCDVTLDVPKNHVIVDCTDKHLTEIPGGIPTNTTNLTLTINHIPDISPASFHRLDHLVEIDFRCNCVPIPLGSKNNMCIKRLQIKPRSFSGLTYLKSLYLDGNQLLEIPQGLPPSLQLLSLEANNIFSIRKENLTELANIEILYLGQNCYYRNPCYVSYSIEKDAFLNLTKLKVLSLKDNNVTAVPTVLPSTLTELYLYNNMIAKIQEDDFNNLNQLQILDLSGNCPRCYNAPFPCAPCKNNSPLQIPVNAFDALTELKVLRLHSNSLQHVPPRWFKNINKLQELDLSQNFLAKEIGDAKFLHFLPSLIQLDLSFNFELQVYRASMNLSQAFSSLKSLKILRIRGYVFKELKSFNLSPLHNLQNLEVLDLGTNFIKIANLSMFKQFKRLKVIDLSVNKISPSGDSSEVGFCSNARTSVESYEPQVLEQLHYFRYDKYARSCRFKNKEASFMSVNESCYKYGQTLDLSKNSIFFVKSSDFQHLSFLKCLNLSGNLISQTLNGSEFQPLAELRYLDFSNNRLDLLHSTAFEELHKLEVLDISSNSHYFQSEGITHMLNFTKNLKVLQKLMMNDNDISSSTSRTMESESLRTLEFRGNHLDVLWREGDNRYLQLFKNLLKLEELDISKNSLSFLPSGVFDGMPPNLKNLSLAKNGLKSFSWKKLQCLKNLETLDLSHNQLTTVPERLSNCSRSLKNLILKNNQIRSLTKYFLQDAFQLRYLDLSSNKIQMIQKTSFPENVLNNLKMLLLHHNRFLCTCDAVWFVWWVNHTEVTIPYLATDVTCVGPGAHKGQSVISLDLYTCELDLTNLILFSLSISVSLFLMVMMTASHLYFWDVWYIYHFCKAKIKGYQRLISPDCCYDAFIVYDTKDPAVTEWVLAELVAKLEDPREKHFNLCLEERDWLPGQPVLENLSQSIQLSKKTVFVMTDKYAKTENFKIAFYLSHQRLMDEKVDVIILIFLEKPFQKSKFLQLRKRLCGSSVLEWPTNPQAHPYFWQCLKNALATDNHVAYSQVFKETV
The experiment is described as follows: TLR7 inhibition reporter assay (HEK-Blue cells, SEAP reporter, gardiquimod stimulation). The following applies: HEK-Blue cells overexpressing human TLR7, SEAP reporter, gardiquimod 7.5 μM. The method, then: (§1) TLR7/8/9 Inhibition Reporter Assays
(§2) HEK-Blue™-cells (Invivogen) overexpressing human TLR7, TLR8 or TLR9 receptors were used for screening inhibitors of these receptors using an inducible SEAP (secreted embryonic alkaline phosphatase) reporter gene under the control of the IFN-β minimal promoter fused to five NF-κB and AP-1-binding sites. Briefly, cells are seeded into Greiner 384 well plates (15000 cells per well for TLR7, 20,000 for TLR8 and 25,000 for TLR9) and then treated with test compounds in DMSO to yield a final dose response concentration range of 0.05 nM-50 μM. After a 30 minute compound pre-treatment al room temperature, the cells are then stimulated with a TLR7 ligand (gardiquimod at a final concentration of 7.5 μM), TLR8 ligand (R848 at a final concentration of 15.9 μM) or TLR9 ligand (ODN2006 at a final concentration of 5 nM) to activate NF-κB and AP-1 which induce the production of SEAP. After a 22 hour incubation at 37° C., 5% CO2, SEAP levels are determined with the addition of HEK-Blue™ Detection reagent (Invivogen), a cell culture medium that allows for detection of SEAP, according to manufacturer's specifications. The percent inhibition is determined as the % reduction in the HEK-Blue signal present in wells treated with agonist plus DMSO alone compared to wells treated with a known inhibitor.
(In general: In a reporter assay the amount or activity of a reporter protein is the signal.)

The target in the next experiment is T2, human TLR9 (Homo sapiens, UniProt Q9NR96).
T2 construct: host or cells: HEK-Blue cells
T2 sequence (Q9NR96 26-1032): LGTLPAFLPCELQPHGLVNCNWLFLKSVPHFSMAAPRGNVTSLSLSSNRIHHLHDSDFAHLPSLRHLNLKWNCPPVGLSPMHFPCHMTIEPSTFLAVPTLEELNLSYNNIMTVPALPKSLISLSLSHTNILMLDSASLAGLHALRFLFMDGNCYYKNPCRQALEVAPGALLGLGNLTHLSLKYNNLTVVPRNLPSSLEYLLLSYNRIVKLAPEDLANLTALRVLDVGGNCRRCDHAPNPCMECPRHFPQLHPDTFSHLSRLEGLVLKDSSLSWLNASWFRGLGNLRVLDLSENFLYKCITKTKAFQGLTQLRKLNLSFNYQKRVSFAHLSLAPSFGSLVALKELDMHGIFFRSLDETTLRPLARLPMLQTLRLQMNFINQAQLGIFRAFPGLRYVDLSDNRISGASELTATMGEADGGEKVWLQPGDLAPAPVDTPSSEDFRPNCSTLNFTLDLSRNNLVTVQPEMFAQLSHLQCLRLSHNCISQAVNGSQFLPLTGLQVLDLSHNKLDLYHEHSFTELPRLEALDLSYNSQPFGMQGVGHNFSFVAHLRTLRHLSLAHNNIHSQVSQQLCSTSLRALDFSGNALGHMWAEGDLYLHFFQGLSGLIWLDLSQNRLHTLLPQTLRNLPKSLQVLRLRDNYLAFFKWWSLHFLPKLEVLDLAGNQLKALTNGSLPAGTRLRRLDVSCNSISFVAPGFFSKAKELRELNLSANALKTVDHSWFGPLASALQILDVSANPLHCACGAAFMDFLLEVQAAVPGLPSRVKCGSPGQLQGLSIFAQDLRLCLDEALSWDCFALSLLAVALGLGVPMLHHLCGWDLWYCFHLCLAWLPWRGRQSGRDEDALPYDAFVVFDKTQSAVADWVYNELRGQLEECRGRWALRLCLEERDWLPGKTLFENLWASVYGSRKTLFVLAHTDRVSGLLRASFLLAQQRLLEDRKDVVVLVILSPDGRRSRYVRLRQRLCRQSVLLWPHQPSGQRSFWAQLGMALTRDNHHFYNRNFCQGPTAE
Put plainly: TLR9 inhibition reporter assay (HEK-Blue cells, SEAP reporter, ODN2006 stimulation). The following applies: HEK-Blue cells overexpressing human TLR9, SEAP reporter, ODN2006 5 nM. The method, then:
as §1, §2

A further experiment addresses T3, human TLR8 (Homo sapiens, UniProt Q9NR97).
T3 construct: host or cells: HEK-Blue cells
T3 sequence (Q9NR97 27-1041): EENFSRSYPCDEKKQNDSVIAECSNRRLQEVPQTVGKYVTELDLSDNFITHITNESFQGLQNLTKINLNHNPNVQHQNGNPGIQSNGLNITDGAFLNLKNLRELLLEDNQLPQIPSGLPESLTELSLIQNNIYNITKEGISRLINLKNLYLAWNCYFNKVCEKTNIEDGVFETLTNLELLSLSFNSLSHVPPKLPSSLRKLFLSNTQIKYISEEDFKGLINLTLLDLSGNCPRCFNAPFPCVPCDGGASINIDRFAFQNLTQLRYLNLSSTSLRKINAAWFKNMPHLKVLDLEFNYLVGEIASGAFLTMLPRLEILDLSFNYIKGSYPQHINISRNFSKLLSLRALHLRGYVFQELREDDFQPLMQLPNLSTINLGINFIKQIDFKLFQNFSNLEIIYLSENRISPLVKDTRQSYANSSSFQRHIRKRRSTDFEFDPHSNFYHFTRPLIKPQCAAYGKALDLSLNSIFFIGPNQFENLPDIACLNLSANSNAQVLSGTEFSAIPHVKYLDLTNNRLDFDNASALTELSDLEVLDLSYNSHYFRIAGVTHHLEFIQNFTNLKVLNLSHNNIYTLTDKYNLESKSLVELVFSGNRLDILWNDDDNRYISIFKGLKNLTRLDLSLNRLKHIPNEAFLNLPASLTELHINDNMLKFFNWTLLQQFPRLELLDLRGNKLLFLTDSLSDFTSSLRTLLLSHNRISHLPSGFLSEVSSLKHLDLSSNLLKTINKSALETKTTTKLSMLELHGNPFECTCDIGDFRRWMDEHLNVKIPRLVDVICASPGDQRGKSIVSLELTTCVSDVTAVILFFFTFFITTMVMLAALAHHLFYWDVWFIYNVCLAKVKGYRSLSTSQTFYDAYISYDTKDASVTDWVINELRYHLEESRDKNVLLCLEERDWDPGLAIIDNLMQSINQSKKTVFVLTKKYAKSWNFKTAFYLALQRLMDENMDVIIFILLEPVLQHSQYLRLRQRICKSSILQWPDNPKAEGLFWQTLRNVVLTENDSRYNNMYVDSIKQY
Put plainly: TLR8 inhibition reporter assay (HEK-Blue cells, SEAP reporter, R848 stimulation). The following applies: HEK-Blue cells overexpressing human TLR8, SEAP reporter, R848 15.9 μM. The method, then: as §1, §2

In general, IC50 refers to the concentration at which inhibition is half-maximal. Higher therefore signals a need for much substance.

Molecules are shown by their SMILES.

With `COc1cc(-c2[nH]c3ccc(C4CCC(N)CC4)cc3c2C(C)C)cn2ncnc12` (single isomer, unassigned) [Example 1, 4-(3-isopropyl-2-(8-methoxy-[1,2,4]triazolo[1,5-a]pyridin-6-yl)-1H-indol-5-yl) cyclohexanamine], the IC50 against human TLR7 is 0.49 nM; against human TLR9 it was 793 nM; against human TLR8, 1.3 nM.

Regarding `COc1cc(-c2[nH]c3ccc(C4CCC(N)CC4)cc3c2C(C)C)cn2ncnc12` (single isomer, unassigned) [Example 2, 4-(3-isopropyl-2-(8-methoxy-[1,2,4]triazolo[1,5-a]pyridin-6-yl)-1H-indol-5-yl) cyclohexanamine], the half-maximal inhibitory concentration (IC50) on human TLR7 was 0.37 nM; against human TLR9 it was 3420 nM; against human TLR8, 1.1 nM.

`Cc1cc(-c2[nH]c3ccc(C4CCC(N)CC4)cc3c2C(C)C)cn2ncnc12` (single isomer, unassigned) [Example 3]: the IC50 on human TLR7 amounted to 0.15 nM; at human TLR9, 1290 nM; against human TLR8, 1 nM.

Regarding `Cc1cc(-c2[nH]c3ccc(C4CCC(N)CC4)cc3c2C(C)C)cn2ncnc12` (single isomer, unassigned) [Example 4], the IC50 at human TLR7 worked out at 6 nM; against human TLR9, 3170 nM; at human TLR8, 45 nM.

As for `COc1cc(-c2[nH]c3ccc(C4CCC(N(C)C(C)C)CC4)cc3c2C(C)C)cn2ncnc12` (single isomer, unassigned) [Example 6, N-isopropyl-4-(3-isopropyl-2-(8-methoxy-[1,2,4]triazolo[1,5-a]pyridin-6-yl)-1H-indol-5-yl)-N-methylcyclohexanamine], the results for the IC50 against human TLR7, on human TLR9 and against human TLR8 were 0.33 nM, 1210 nM and 1 nM, respectively.

As to `COc1cc(-c2[nH]c3ccc(C4CCC(N(C)C(C)C)CC4)cc3c2C(C)C)cn2ncnc12` (single isomer, unassigned) [Example 7, N-isopropyl-4-(3-isopropyl-2-(8-methoxy-[1,2,4]triazolo[1,5-a]pyridin-6-yl)-1H-indol-5-yl)-N-methylcyclohexanamine], the IC50 against human TLR7 was determined as 1 nM; against human TLR9 it was 2000 nM; against human TLR8, 4.4 nM.

Regarding `Cc1cc(-c2[nH]c3ccc(C4CCC(N(C)C5CC5)CC4)cc3c2C(C)C)cn2ncnc12` (single isomer, unassigned) [Example 8], the results for the half-maximal inhibitory concentration (IC50) against human TLR7, against human TLR9 and at human TLR8 were 6 nM, 3690 nM and 16 nM, respectively.

Consider `Cc1cc(-c2[nH]c3ccc(C4CCC(N(C)C5CC5)CC4)cc3c2C(C)C)cn2ncnc12` (single isomer, unassigned) [Example 9], for which the 50% inhibitory concentration (IC50) amounted to 0.36 nM against human TLR7, 1880 nM against human TLR9 and 1.8 nM at human TLR8.

For the molecule `Cc1cc(-c2[nH]c3ccc(C4CCC(C)(O)CC4)cc3c2C(C)C)cc(C)n1` (single isomer, unassigned) [Example 170], the concentration for half-maximal inhibition (IC50) stood at 13 nM on human TLR7 and 590 nM on human TLR8.

For `COc1cc(-c2[nH]c3ccc(C4CCC(NC(=O)CN5CC(CO)(CO)C5)CC4)cc3c2C(C)C)cn2ncnc12` (stereo not shown) [Example 134], the IC50 at human TLR7 was 1 nM; against human TLR8 it was 2.5 nM.

Turning to `COc1cc(-c2[nH]c3ccc(C4CCC(NC(=O)CNCC5COC(C)(C)O5)CC4)cc3c2C(C)C)cn2ncnc12` (stereo not shown) [Example 136], the half-inhibitory concentration (IC50) on human TLR9 was found to be 19200 nM; at human TLR8, 7.2 nM.

Turning to `CN[C@H](C)C(=O)N1CCCC(c2ccc3[nH]c(-c4cc(C)nc(C)c4)c(C(C)C)c3c2)C1` (stereo partly shown) [Example 221], the IC50 on human TLR9 was determined as 357 nM; on human TLR8 it was 4.4 nM.

`CCN(CC)CC(=O)N1CCOC(c2ccc3[nH]c(-c4cc(OC)c5ncnn5c4)c(C(C)C)c3c2)C1` (stereo not shown) [Example 333]: the IC50 was determined as 0.71 nM at human TLR7 and 4.7 nM at human TLR8.

In the case of `Cc1c(-c2[nH]c3ccc(C4CNC4)cc3c2C(C)C)cn(C)c(=O)c1C` [Example 486], the 50% inhibitory concentration (IC50) at human TLR7 is 19 nM; against human TLR8 it was 13 nM.

For `Cc1c(-c2[nH]c3ccc(C4CC(NC5COC5)C4)cc3c2C(C)C)cn2ncnc2c1C` (stereo not shown) [Example 576], the values for the IC50 on human TLR7 and against human TLR8 were 23 nM and 7.4 nM, respectively.

Turning to `Cc1c(-c2[nH]c3ccc(C4CC(NCC#N)C4)cc3c2C(C)C)cn2ncnc2c1C` (stereo not shown) [Example 577], the IC50 on human TLR7 stood at 4 nM; against human TLR8 it was 4.5 nM.
